{"source": "patent US20040197222A1", "about": "(priority 2002, published 2004)", "key": {"[1]": {"system": "B. stearothermophilus spores (10^5, ATCC #7953)", "assay_type": "cell-based, Bacillus stearothermophilus"}, "[2]": {"system": "B. subtilis var. niger strips containing 10^8 spores", "assay_type": "cell-based, Bacillus subtilis var. niger", "details": "28 °C to 38 °C, 250 to 350 oz/mcf, 48 hours"}, "[3]": {"system": "10^5 of B. stearothermophilus ATCC # 7953", "assay": "Trailer field fumigation, combined-species spore strips incubated for B. stearothermophilus", "assay_type": "cell-based, Bacillus stearothermophilus"}, "[4]": {"system": "10^6 spores of B. subtilis var. niger ATCC # 9372", "assay_type": "cell-based, Bacillus subtilis var. niger", "details": "trailer, 20 sites, 28 °C to 38 °C, 250 to 350 oz/mcf, 48 hours"}, "[5]": {"system": "Bacillus anthracis ANR-1 spores", "assay_type": "cell-based", "details": "37 °C; for reduction in B. anthracis spores: all concentrations tested (80 to 320 mg/L)"}, "[6]": {"system": "B. subtilis var. niger spores (10^6, ATCC #9372)", "assay_type": "cell-based, Bacillus subtilis var. niger", "details": "for germination of B. subtilis spores: exposure as long as 164 hours"}, "B. atrophaeus spores": {"system": "B. atrophaeus spores", "assay_type": "cell-based"}, "[7]": {"system": "G. stearothermophilus spores", "assay_type": "cell-based"}}, "note": "“Also recorded” adds a separate entry of the source. Read-outs that look alike come from different tables or passages of the source.", "data": [{"smiles": "CBr", "note": "[methyl bromide]", "values": [{"measurement": "Spore Germination B. stearo.", "setting": "[1]", "value": "no and yes"}, {"measurement": "germination of Bacillus stearothermophilus spores", "setting": "[1]", "value": "prevented from germinating"}, {"measurement": "germination of spores in strips with concentrations of 10^8, field fumigation", "setting": "[2]", "value": "successfully disabled"}, {"measurement": "spores on all 10^5 B. stearothermophilus strips, field fumigation", "setting": "[3]", "value": "successfully disabled; also recorded: killed"}, {"measurement": "spores on all 10^6 B. subtilis strips, field fumigation", "setting": "[4]", "value": "successfully disabled"}, {"measurement": "spores on all 10^6 B. subtilis strips, field fumigation", "setting": "[4]; listed as MB", "value": "killed"}, {"measurement": "lowest total concentration at which treatment is effective (B. anthracis)", "setting": "[5]; 48 hours", "value": 80, "unit": "mg/L"}, {"measurement": "reduction in B. anthracis spores", "setting": "[5]; 48 hours", "value": "≥ 7", "unit": "log"}, {"measurement": "reduction in B. anthracis spores", "setting": "[5]; 48 hours, listed as MB", "value": "≥ 6", "unit": "log"}, {"measurement": "B. anthracis spores in chamber 6", "setting": "[5]; chamber 6, 48 hours", "value": "completely killed"}, {"measurement": "B. anthracis spores remaining (detection level)", "setting": "[5]; out of 14 million, 80 to 320 mg/L, 48 hours", "value": "< 50", "unit": "spores"}, {"measurement": "Spore Germination B. subtilis", "setting": "[6]; 19 °C, MeBr 48 mg/l (theoretical), 104 hours, 5,000 mg-hr/l", "value": "yes"}, {"measurement": "Spore Germination B. subtilis", "setting": "[6]; 19 °C, MeBr 48 mg/l (theoretical), 146 hours, 7,000 mg-hr/l", "value": "yes"}, {"measurement": "Spore Germination B. subtilis", "setting": "[6]; 19 °C, MeBr 80 mg/l (theoretical), 112 hours, 9,000 mg-hr/l", "value": "yes"}, {"measurement": "Spore Germination B. subtilis", "setting": "[6]; 19 °C, MeBr 80 mg/l (theoretical), 134 hours, 11,000 mg-hr/l", "value": "yes"}, {"measurement": "Spore Germination B. subtilis", "setting": "[6]; 19 °C, MeBr 80 mg/l (theoretical), 164 hours, 13,120 mg-hr/l", "value": "yes"}, {"measurement": "Spore Germination B. subtilis", "setting": "[6]; 19 °C, MeBr 160 mg/l (theoretical), 164 hours, 26,240 mg-hr/l", "value": "yes"}, {"measurement": "germination of B. subtilis spores", "setting": "[6]; 19 °C, methyl bromide 48 to 80 mg/l (theoretical value)", "value": "still germinated"}, {"measurement": "germination of B. subtilis spores", "setting": "[6]; 19 °C, methyl bromide as high as 320 mg/l (theoretical value)", "value": "still able to germinate"}, {"measurement": "B. subtilis spore germination", "setting": "[6]; 27 °C, methyl bromide 320 mg/l (theoretical value), 72 hours", "value": "successfully disabled"}, {"measurement": "germination of the B. subtilis spores", "setting": "[6]; 32 °C, methyl bromide 160 mg/l (theoretical value), 72 hours", "value": "not sufficient to stop germination; also recorded: not sufficient to prevent germination"}, {"measurement": "B. subtilis spore germination", "setting": "[6]; 32 °C, methyl bromide 240 mg/l (theoretical value), 38 hours", "value": "successfully disabled"}, {"measurement": "Spore Germination B. subtilis", "setting": "[6]; Example 1, 19 °C, MeBr 48 mg/l (theoretical), 63 hours, 3,000 mg-hr/l", "value": "yes"}, {"measurement": "Spore Germination B. subtilis", "setting": "[6]; Example 2, 19 °C, MeBr 48 mg/l (theoretical), 63 hours, 3,000 mg-hr/l", "value": "yes"}, {"measurement": "Spore Germination B. subtilis", "setting": "[6]; Example 2, 20 °C, MeBr 320 mg/l (theoretical), 72 hours, 23,040 mg-hr/l", "value": "yes"}, {"measurement": "Spore Germination B. subtilis", "setting": "[6]; Example 2, 20 °C, MeBr 320 mg/l (theoretical), 96 hours, 30,720 mg-hr/l", "value": "yes"}, {"measurement": "Spore Germination B. subtilis", "setting": "[6]; Example 2, 27 °C, MeBr 240 mg/l (theoretical), 48 hours, 11,520 mg-hr/l", "value": "yes"}, {"measurement": "Spore Germination B. subtilis", "setting": "[6]; Example 2, 27 °C, MeBr 320 mg/l (theoretical), 72 hours, 23,040 mg-hr/l", "value": "no"}, {"measurement": "Spore Germination B. subtilis", "setting": "[6]; Example 2, 27 °C, MeBr 320 mg/l (theoretical), 96 hours, 30,720 mg-hr/l", "value": "no"}, {"measurement": "Spore Germination B. subtilis", "setting": "[6]; Example 2, 27 °C, MeBr 320 mg/l (theoretical), 96 hours, 30,720 mg-hr/l, chamber contained office commodities", "value": "no^4"}, {"measurement": "Spore Germination B. subtilis", "setting": "[6]; Example 3, 19 °C, MeBr 48 mg/l (theoretical), 63 hours, 3,000 mg-hr/l", "value": "no"}, {"measurement": "Spore Germination B. subtilis", "setting": "[6]; Example 3, 27 °C, MeBr 320 mg/l (theoretical), 62 hours, 19,776 mg-hr/l", "value": "no"}, {"measurement": "Spore Germination B. subtilis", "setting": "[6]; Example 3, 32 °C, MeBr 160 mg/l (theoretical), 72 hours, 11,520 mg-hr/l", "value": "yes"}, {"measurement": "Spore Germination B. subtilis", "setting": "[6]; Example 3, 32 °C, MeBr 240 mg/l (theoretical), 48 hours, 11,520 mg-hr/l", "value": "no"}, {"measurement": "Spore Germination B. subtilis", "setting": "[6]; Example 3, 32 °C, MeBr 240 mg/l (theoretical), 72 hours, 17,280 mg-hr/l", "value": "no"}, {"measurement": "Spore Germination B. subtilis", "setting": "[6]; Example 3, 32 °C, MeBr 320 mg/l (theoretical), 38 hours, 12,160 mg-hr/l", "value": "no"}, {"measurement": "Spore Germination B. subtilis", "setting": "[6]; Example 3, 32 °C, MeBr 320 mg/l (theoretical), 47 hours, 15,104 mg-hr/l", "value": "no"}, {"measurement": "Recovery of viable spores, commercial spore strips B. atrophaeus", "setting": "B. atrophaeus spores", "value": "no growth; also recorded: growth"}, {"measurement": "killing of B. atrophaeus spores on a spore strip", "setting": "B. atrophaeus spores", "value": "insufficient to kill all B. atrophaeus spores"}, {"measurement": "Recovery of viable spores, commercial spore strips G. stearothermophilus A", "setting": "[7]", "value": "no growth"}, {"measurement": "Recovery of viable spores, commercial spore strips G. stearothermophilus B", "setting": "[7]", "value": "no growth; also recorded: growth"}, {"measurement": "killing of G. stearothermophilus spores on a spore strip", "setting": "[7]", "value": "capable of killing all G. stearothermophilus spores"}]}]}
